Tests used:
[1] = Plasma protein binding (free fraction); assay type: in vitro ADME, mouse
Description: (§1) Example 3 of U.S. Pat. No. 9,789,131, which is incorporated herein by reference, describes assays for determining the plasma and brain free fraction of certain compounds such as I-1. Compounds described herein may be evaluated using such assays or similar variants thereof.

[2] = Nonspecific brain tissue binding (free fraction); assay type: in vitro ADME, mouse
Description: as §1

[3] = system: photothrombosis-induced stroke in mice; assay: Mouse photothrombotic stroke model; assay type: in vivo
Method: Photothrombosis-induced Stroke: Photothrombosis is performed as described in Zheng et al 2010 (PloS One 5 (12): e14401). In brief, Rose Bengal is a fluorescent dye that when injected into the vasculature and excited, generates singlet oxygen that damages the endothelial wall and induces a local thrombosis (clot). Using this technique, mice are given a 0.1 mL tail-vein injection of sterilized Rose Bengal (RB, Sigma, U.S.A.) in artificial cerebral spinal fluid (aCSF). The RB concentration is 20 mg/mL. A cortical region is centered in the imaging field and illuminated with a green laser (543 nm, 5 mW) using a 0.8-NA 40× water-immersion objective (Nikon, Tokyo). The clot formation is monitored in real time until the targeted vessel or downstream capillaries are firmly occluded. Stable clots are subsequently identified by a non-fluorescent vessel segmentation ending with highly fluorescent regions. […] Treatments, at doses such as 0.5 μmol/kg are introduced via intraperitoneal injections (i.p.). For experiments with A3 receptor antagonist MRS1523, mice are administered intraperitoneal injections (2 mg/kg) at the 0 and 2 hour timepoints to ensure receptor antagonism throughout the course of the study.
Animals and Photothrombosis-induced Stroke: Stroke is performed as described in Zheng et al 2010 (PloS One 5 (12): e14401). Female C57Bl/6 mice (4-6 months) are used in this study. From the methods of this manuscript: Mice are anesthetized at 3% isoflurane with 100% oxygen and subsequently maintained at 1% isoflurane through a nosecone. Depth of anesthesia is monitored and regulated according to vital signs, pinch withdrawal and eye blinks. Body temperature is maintained at 37° C. by a feedback-controlled heating pad (Gaymar T/Pump). Vital signs including oxygen saturation, respiratory rate, and heart rate are continuously monitored by using the MouseOx system (STARR Life Sciences). […]
Post photothrombotic infarction evaluation. The size of cerebral infarcts is evaluated using 2,3,5-Triphenyltetrazolium chloride (TTC) staining as described in Zheng et al 2010 (PloS One 5 (12): e14401). […]

CSc1nc(N)c2ncn([C@H]3[C@H](O)[C@H](O)[C@]4(CO)C[C@H]34)c2n1 [Compound I-1, (1R,2R,3S,4R,5S)-4-(6-Amino-2-(methylthio)-9H-purin-9-yl)-1-(hydroxymethyl)bicyclo[3.1.0]hexane-2,3-diol]
free (unbound) fraction in plasma [1]: 0.74
free (unbound) fraction in brain ([2]; brain tissue): 0.13
fraction available to interact with the A3 receptor, relative to Cl-IB-IMECA ([2]; mouse models, from unbound fractions): at least 1000 fold
efficacy of I-1 in presence of A3 antagonist MRS1523 ([3]; mouse photothrombotic stroke and TBI models, with MRS1523): blocked
efficacy in mouse photothrombotic stroke model ([3]; mouse, stroke): significant efficacy

Reference: US20240368164A1, “PURINE NUCLEOSIDES, THEIR INTERMEDIATES, AND METHODS OF PREPARATION THEREOF” (Astrocyle Pharmaceuticals, Inc., priority 2021, published 2024)
